The source of these data is ChEMBL document CHEMBL1157764, “Conserved high activity binding peptides are involved in adhesion of two detergent-resistant membrane-associated merozoite proteins to red blood cells during invasion” (J Med Chem, 2010).

Where a SMILES comes first, the peptide text is derived from it. [ ]: non-standard residue; d: D form. Ahp(2) = CCCCC[C@H](N)C(=O)O

The test is filed under the species Homo sapiens. The test is described as follows: Binding affinity to RBC membrane receptor in human RBCs assessed as specific binding activity measured as ratio of specifically bound peptide/added peptide by gamma counter.

Turning to `CC(C)[C@H](NC(=O)[C@H](Cc1cnc[nH]1)NC(=O)[C@@H](NC(=O)[C@H](CCCCN)NC(=O)[C@H](CCC(=O)O)NC(=O)[C@@H](NC(=O)[C@H](CC(N)=O)NC(=O)[C@H](CC(N)=O)NC(=O)[C@H](CCCNC(=N)N)NC(=O)[C@H](Cc1ccccc1)NC(=O)[C@H](C)NC(=O)[C@H](Cc1cnc[nH]1)NC(=O)[C@@H](NC(=O)[C@@H](NC(=O)[C@H](CO)NC(=O)[C@H](CCC(=O)O)NC(=O)[C@H](CC(N)=O)NC(=O)[C@@H](N)CO)C(C)C)[C@@H](C)O)[C@@H](C)O)[C@@H](C)O)C(=O)N[C@@H](Cc1cnc[nH]1)C(=O)N[C@@H](CCCCN)C(=O)N[C@@H](Cc1ccc(O)cc1)C(=O)O`, the Activity is greater than 2%.

`CC[C@H](C)[C@H](NC(=O)[C@H](CC(N)=O)NC(=O)[C@@H](NC(=O)[C@H](CC(N)=O)NC(=O)CNC(=O)[C@H](CC(=O)O)NC(=O)[C@H](CCCCN)NC(=O)[C@@H](NC(=O)[C@@H](NC(=O)[C@@H](NC(=O)[C@@H]1CCCN1C(=O)[C@H](CCC(=O)O)NC(=O)[C@H](CCC(=O)O)NC(=O)[C@H](CC(N)=O)NC(=O)[C@@H](N)CCCCN)C(C)C)[C@@H](C)CC)C(C)C)[C@@H](C)CC)C(=O)N[C@@H](CCCCN)C(=O)N[C@@H](CO)C(=O)N[C@@H](C)C(=O)N[C@@H](CC(C)C)C(=O)N[C@@H](CC(C)C)C(=O)N[C@@H](Cc1ccc(O)cc1)C(=O)O`: the Activity is greater than 2%.

As to H-QEKLNTTDPSKAYIYGANII-OH, the Activity was greater than 2%.

H-SPNYELSLNSLSDSQNVDIF-OH: the Activity was greater than 2%.

Regarding H-RYNEMKRDANPDVYYIYLMD-OH, the Activity was greater than 2%.

With `CC[C@H](C)[C@H](NC(=O)[C@H](Cc1ccc(O)cc1)NC(=O)[C@H](CS)NC(=O)[C@@H]1CCCN1C(=O)[C@H](CC(=O)O)NC(=O)[C@@H](N)CCC(=O)O)C(=O)N[C@@H](CC(N)=O)C(=O)N[C@@H](CC(N)=O)C(=O)N[C@@H](CO)C(=O)N[C@@H](Cc1ccc(O)cc1)C(=O)N[C@H](C(=O)N[C@@H](CO)C(=O)N[C@H](C(=O)N[C@@H](CC(N)=O)C(=O)N[C@H](C(=O)N[C@H](C(=O)N[C@@H](CS)C(=O)N[C@@H](CC(N)=O)C(=O)N[C@@H](CCCCN)C(=O)N[C@@H](CCC(=O)O)C(=O)O)C(C)C)C(C)C)C(C)C)C(C)C` (H-EDPCYINNSYVSVNVVCNKE-OH), the Activity was greater than 2%.

H-TLVNNKENKEFVLKEKSSLTY-OH: the Activity is greater than 2%.

Consider H-NNDDQDEQGNDGDVTSSMNKY-OH, for which the Activity is greater than 2%.

Turning to `CC[C@H](C)[C@H](NC(=O)[C@H](CCCNC(=N)N)NC(=O)[C@H](CC(C)C)NC(=O)[C@H](CC(=O)O)NC(=O)[C@H](CCC(=O)O)NC(=O)[C@@H](NC(=O)[C@@H](NC(=O)[C@H](CO)NC(=O)CNC(=O)[C@H](CCCCN)NC(=O)[C@@H](N)CCCCN)[C@@H](C)CC)[C@@H](C)O)C(=O)N[C@H](C(=O)N[C@@H](CC(N)=O)C(=O)N[C@@H](CC(=O)O)C(=O)N[C@@H](CC(C)C)C(=O)N[C@@H](CCC(=O)O)C(=O)N1CCC[C@H]1C(=O)N[C@@H](CC(C)C)C(=O)N[C@@H](CC(=O)O)C(=O)N[C@@H](Cc1ccc(O)cc1)C(=O)O)C(C)C`, the Activity was greater than 2%.

For H-ITIEELFKSAIKTEEMKDNKY-OH, the Activity was less than 2%.

For H-NDSNDFLKKYAIMGNSFDDG-OH, the Activity was greater than 2%.

On to H-TNTTPAVYSGSLLSMNNDFE-OH, for which the Activity is greater than 2%.

With `CC[C@H](C)[C@H](NC(=O)[C@H](Cc1ccc(O)cc1)NC(=O)[C@@H](N)CC(N)=O)C(=O)N[C@@H](CCC(=O)O)C(=O)N[C@@H](CCC(=O)O)C(=O)N1CCC[C@H]1C(=O)N[C@@H](Cc1ccccc1)C(=O)N[C@@H](CO)C(=O)N[C@H](C(=O)N[C@H](C(=O)N[C@@H](Cc1ccccc1)C(=O)N[C@H](C(=O)N[C@H](C(=O)N[C@@H](CC(C)C)C(=O)N[C@@H](CCC(N)=O)C(=O)N[C@H](C(=O)N[C@@H](CCC(N)=O)C(=O)N[C@@H](CCSC)C(=O)N[C@@H](CC(N)=O)C(=O)O)[C@@H](C)O)[C@@H](C)CC)[C@@H](C)O)[C@@H](C)O)[C@@H](C)O`, the Activity was greater than 2%.

As for `CC[C@H](NC(=O)[C@H](CC(C)C)NC(=O)[C@H](CCCCN)NC(=O)[C@H](CC(N)=O)NC(=O)[C@H](CC(N)=O)NC(=O)[C@H](Cc1ccc(O)cc1)NC(=O)[C@@H](NC(=O)[C@H](Cc1ccc(O)cc1)NC(=O)[C@H](CCCCN)NC(=O)[C@H](Cc1ccc(O)cc1)NC(=O)[C@@H](NC(=O)[C@H](Cc1ccc(O)cc1)NC(=O)[C@@H](NC(=O)[C@H](Cc1ccc(O)cc1)NC(=O)[C@@H](NC(=O)[C@H](CCCCN)NC(=O)[C@H](CC(N)=O)NC(=O)[C@@H](NC(=O)[C@@H](N)[C@@H](C)O)C(C)C)[C@@H](C)CC)[C@@H](C)O)[C@@H](C)O)[C@@H](C)CC)C(=O)N[C@@H](C)C(=O)O`, the Activity was greater than 2%.

For the compound `CC[C@H](C)[C@H](NC(=O)[C@H](CCCCN)NC(=O)[C@@H](NC(=O)[C@H](Cc1ccc(O)cc1)NC(=O)CNC(=O)[C@H](CCC(=O)O)NC(=O)[C@H](CC(=O)O)NC(=O)[C@H](CO)NC(=O)[C@H](Cc1ccc(O)cc1)NC(=O)[C@H](CC(C)C)NC(=O)[C@H](CC(N)=O)NC(=O)[C@H](CCSC)NC(=O)[C@@H](NC(=O)[C@H](CCC(C)=O)NC(=O)[C@H](CC(N)=O)NC(=O)[C@H](CCCCN)NC(=O)[C@@H](N)Cc1c[nH]c2ccccc12)C(C)C)[C@@H](C)O)C(=O)N[C@@H](CC(N)=O)C(=O)N[C@H](C(=O)N[C@@H](CC(C)C)C(=O)O)[C@@H](C)O`, the Activity is greater than 2%.

Regarding H-EDGEKENKHKSSETTNETVTY-OH, the Activity is greater than 2%.

Turning to H-DEVFGSQSSNFNIFDSNNTDY-OH, the Activity was greater than 2%.

On to H-TEEKGKDEQKKDEQKEQDEEY-OH, for which the Activity was greater than 2%.

Take `CC[C@H](C)[C@H](NC(=O)[C@H](CCC(N)=O)NC(=O)CNC(=O)[C@H](C)NC(=O)[C@@H](N)CC(C)C)C(=O)N[C@@H](CC(N)=O)C(=O)NCC(=O)N[C@@H](CC(C)C)C(=O)N[C@@H](CC(N)=O)C(=O)N[C@@H](CC(=O)O)C(=O)N[C@@H](CC(C)C)C(=O)N[C@@H](Cc1ccc(O)cc1)C(=O)NCC(=O)N[C@@H](CCCNC(=N)N)C(=O)N[C@@H](CC(N)=O)C(=O)N[C@@H](CO)C(=O)N[C@@H](CCCCN)C(=O)N[C@@H](CCCCN)C(=O)N[C@H](C(=O)N[C@@H](Cc1ccc(O)cc1)C(=O)O)[C@@H](C)O`: the Activity is less than 2%.

For H-DEKHAENEENVEQIETDSNVY-OH, the Activity is greater than 2%.

As for `CCCCC[C@H](NC(=O)[C@H](Cc1ccc(O)cc1)NC(=O)[C@@H](NC(=O)[C@H](CCCNC(=N)N)NC(=O)[C@H](CCCNC(=N)N)NC(=O)[C@H](CCC(N)=O)NC(=O)[C@@H]1CCCN1C(=O)[C@@H](NC(=O)[C@@H](NC(=O)[C@H](Cc1ccccc1)NC(=O)[C@@H](NC(=O)[C@H](CC(=O)O)NC(=O)[C@H](CC(N)=O)NC(=O)[C@H](CCC(=O)O)NC(=O)CNC(=O)[C@H](Cc1ccccc1)NC(=O)[C@H](CC(C)C)NC(=O)[C@@H](N)Cc1ccc(O)cc1)[C@@H](C)CC)C(C)C)C(C)C)[C@@H](C)CC)C(=O)N[C@H](C(=O)N[C@@H](CCC(=O)O)C(=O)O)[C@@H](C)O` (H-YLFGENDIFVVPQRRIY[Ahp(2)]TE-OH), the Activity is greater than 2%.

Regarding H-NEDNKDLEHGSSNDVNNNTDY-OH, the Activity was greater than 2%.

Regarding H-ILYLEKNNLFNTQASCIKSY-OH, the Activity is greater than 2%.

Regarding H-LFETFDPQYLNTEFNGVSHY-OH, the Activity is greater than 2%.

Turning to H-MAVYNALYEKAQSYNLQKLF-OH, the Activity was greater than 2%.

H-QNNEQEQPKQDDQLLNNNNDY-OH: the Activity was greater than 2%.

On to H-YGKEFKWSDPKVIDVSNVIG-OH, for which the Activity is greater than 2%.

H-LNEDLVLLYNDFPFDNGMIS-OH: the Activity was greater than 2%.

For `CC[C@H](C)[C@H](NC(=O)[C@H](C)NC(=O)[C@H](CCC(=O)O)NC(=O)[C@H](C)NC(=O)[C@H](CC(=O)O)NC(=O)[C@@H](NC(=O)[C@H](CO)NC(=O)[C@H](CC(=O)O)NC(=O)[C@H](CCC(=O)O)NC(=O)[C@H](CC(=O)O)NC(=O)[C@H](CC(N)=O)NC(=O)[C@H](CCC(N)=O)NC(=O)[C@H](CCC(N)=O)NC(=O)[C@H](CC(C)C)NC(=O)[C@H](CCC(=O)O)NC(=O)[C@@H](N)CCC(=O)O)[C@@H](C)O)C(=O)N[C@@H](CC(=O)O)C(=O)N[C@@H](CCCCN)C(=O)N[C@@H](CCC(=O)O)C(=O)N[C@@H](CCC(=O)O)C(=O)N[C@H](C(=O)N[C@@H](CCC(=O)O)C(=O)N[C@@H](Cc1ccc(O)cc1)C(=O)O)C(C)C`, the Activity is greater than 2%.

On to `CC[C@H](C)[C@H](NC(=O)[C@@H](N)CCC(=O)O)C(=O)N[C@@H](CO)C(=O)N[C@@H](CCC(=O)O)C(=O)N[C@@H](CS)C(=O)N[C@H](C(=O)N[C@@H](CCC(=O)O)C(=O)N[C@@H](CO)C(=O)N[C@@H](CCC(=O)O)C(=O)N[C@@H](CCC(N)=O)C(=O)N[C@@H](CC(N)=O)C(=O)N[C@@H](CCC(=O)O)C(=O)N[C@H](C(=O)N[C@@H](CCCCN)C(=O)N[C@H](C(=O)N[C@@H](CO)C(=O)N[C@H](C(=O)N[C@H](C(=O)N[C@@H](CS)C(=O)N[C@@H](CC(C)C)C(=O)N[C@@H](Cc1ccc(O)cc1)C(=O)O)[C@@H](C)O)[C@@H](C)O)[C@@H](C)O)C(C)C)C(C)C` (H-EISECVESEQNEVKTSTTCLY-OH), for which the Activity is greater than 2%.

For the compound `CC[C@H](C)[C@H](NC(=O)[C@@H](NC(=O)[C@H](Cc1ccc(O)cc1)NC(=O)[C@H](CCC(=O)O)NC(=O)[C@H](CCCCN)NC(=O)[C@H](CCC(=O)O)NC(=O)[C@H](Cc1ccc(O)cc1)NC(=O)[C@H](CO)NC(=O)[C@H](Cc1ccccc1)NC(=O)[C@H](Cc1ccc(O)cc1)NC(=O)[C@H](CO)NC(=O)[C@@H](NC(=O)[C@H](CCSC)NC(=O)[C@H](Cc1ccc(O)cc1)NC(=O)[C@@H](NC(=O)CNC(=O)[C@H](CCCCN)NC(=O)[C@@H]1CCCN1C(=O)[C@@H](N)Cc1ccccc1)[C@@H](C)O)[C@@H](C)O)C(C)C)C(=O)N[C@@H](CO)C(=O)O`, the Activity was greater than 2%.

For H-LGYDNCTIEVNKTVNGIDWN-OH, the Activity is greater than 2%.

As to H-MFAVNLKICIFLSLVSFLLQY-OH, the Activity was greater than 2%.
